Paper PMC3522796 (Cancer letters, 2012)
Entries after “also recorded” stand apart in the source; their conditions may differ. Where two headings read alike, the source gives them in different places.

Assays:
human MCF-7 cells = settings: 72 h incubation; cited from earlier work
HeLa cells = settings: cited from earlier work
[1] = rabbit model; cited from earlier work
tubulin = tubulin (Sus scrofa, UniProt P02554); assay: Tubulin polymerization assay; type: biochemical
[2] = tested on: 4T1 mouse mammary carcinoma cells; assay: In-vitro cytotoxicity, MTT assay; type: cell-based
[3] = tested on: M109 subcutaneous lung tumor; settings: cited from earlier work; for Antitumor efficacy: at MTD; for Tumor AUC of PX fold greater than Taxol: i.v.
human tumor cell lines = settings: variety of human tumor cell lines; cited from earlier work
P-glycoprotein (P-gp) = settings: cited from earlier work
microtubule = settings: cited from earlier work; for Microtubule assembly: 10 µM
mice = settings: cited from earlier work
[4] = tested on: metastatic malignant melanoma; settings: Phase III, every 3-week treatment schedule; cited from earlier work

Chain of tubulin (P02554 whole entry): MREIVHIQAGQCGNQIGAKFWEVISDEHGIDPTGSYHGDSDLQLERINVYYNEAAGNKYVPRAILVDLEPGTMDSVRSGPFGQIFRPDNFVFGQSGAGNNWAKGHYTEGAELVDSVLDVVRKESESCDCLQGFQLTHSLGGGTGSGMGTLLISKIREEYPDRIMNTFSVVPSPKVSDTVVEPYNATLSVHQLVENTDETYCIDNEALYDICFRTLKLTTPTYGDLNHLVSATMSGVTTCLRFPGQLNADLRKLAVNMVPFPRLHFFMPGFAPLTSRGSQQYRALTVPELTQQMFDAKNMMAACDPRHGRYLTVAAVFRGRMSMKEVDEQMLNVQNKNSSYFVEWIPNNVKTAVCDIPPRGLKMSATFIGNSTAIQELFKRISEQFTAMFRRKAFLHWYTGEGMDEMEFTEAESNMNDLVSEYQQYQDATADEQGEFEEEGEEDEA
Chain of tubulin (P02550 whole entry partner): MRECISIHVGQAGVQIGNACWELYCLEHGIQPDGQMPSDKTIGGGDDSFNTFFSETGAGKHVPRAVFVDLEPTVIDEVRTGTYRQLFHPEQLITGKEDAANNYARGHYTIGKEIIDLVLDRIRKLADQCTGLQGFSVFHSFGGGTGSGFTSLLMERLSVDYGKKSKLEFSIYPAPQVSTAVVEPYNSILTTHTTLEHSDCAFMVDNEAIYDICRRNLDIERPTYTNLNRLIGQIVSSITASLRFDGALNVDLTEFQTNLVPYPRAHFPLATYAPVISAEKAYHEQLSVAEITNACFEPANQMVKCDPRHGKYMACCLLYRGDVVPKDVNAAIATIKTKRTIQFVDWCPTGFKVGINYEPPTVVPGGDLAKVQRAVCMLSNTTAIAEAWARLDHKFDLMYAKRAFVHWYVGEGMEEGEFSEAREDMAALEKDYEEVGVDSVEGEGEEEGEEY

**Q.** With `CCCCCCCCCCCCCCC(Br)C(=O)OC(C(=O)OC1CC2(O)C(OC(=O)c3ccccc3)C3C4(OC(C)=O)COC4CC(O)C3(C)C(=O)C(OC(C)=O)C(=C1C)C2(C)C)C(NC(=O)c1ccccc1)c1ccccc1` (stereo not drawn) [2’-α-bromohexadecanoyl-PX] as the compound, how does the “Fold less potent compared to PX” value (human MCF-7 cells) read?
**A.** The value was 70 fold.

**Q.** Which IC50 (HeLa cells; 24 h incubation, in lipid emulsions) does the source give for `CCCCCCCCC=CCCCCCCCC(=O)OC(C(=O)OC1CC2(O)C(OC(=O)c3ccccc3)C3C4(OC(C)=O)COC4CC(O)C3(C)C(=O)C(OC(C)=O)C(=C1C)C2(C)C)C(NC(=O)c1ccccc1)c1ccccc1` (stereo not drawn) [2’-oleate-PX] here?
**A.** Its IC50 is 5500 nM.

**Q.** What about the IC50 (HeLa cells; 48 h incubation) of the same compound?
**A.** Its IC50 is 500 nM.

**Q.** What about the IC50 (HeLa cells; 72 h incubation, in lipid emulsions) of the same compound?
**A.** The IC50 was 150 nM.

**Q.** What about the IC50 (HeLa cells; 96 h incubation, in lipid emulsions) of the same compound?
**A.** The IC50 was 100 nM.

**Q.** What about the “Pharmacokinetics compared to PX formulated in Cremophor EL/Ethanol” value [1] of the same compound?
**A.** Its value is “significantly greater AUC, higher Cmax, and lower systemic clearance”.

**Q.** For `CC(=O)O[C@H]1C(=O)[C@@]2(C)[C@H]([C@H](OC(=O)c3ccccc3)[C@]3(O)C[C@H](OC(=O)[C@H](O)[C@@H](NC(=O)c4ccccc4)c4ccccc4)C(C)=C1C3(C)C)[C@]1(OC(C)=O)CO[C@@H]1C[C@@H]2O` [PX, Paclitaxel], which “Vmax of tubulin polymerization” value (tubulin; 10 µM, 37°C, 3 mg/ml tubulin, standard control 25.3 ± 3.2) is on record?
**A.** The value was 45.0 ± 3.6 mOD/min.

**Q.** And the “Effect on tubulin polymerization” value (tubulin; 10 µM, compared to control)?
**A.** The value was “could stabilize microtubule proteins”.

**Q.** What about the IC50 ([2]; Mus musculus, 4T1, 48 h) of the same compound?
**A.** The IC50 was 38 ± 1 nM.

**Q.** And the Antitumor efficacy [3]?
**A.** The Antitumor efficacy was “did not result in even partial tumor regression”.

**Q.** What about the Cytotoxic concentration range (human tumor cell lines) of the same compound?
**A.** The Cytotoxic concentration range was “nM range”.

**Q.** And the P-gp substrate (P-glycoprotein (P-gp))?
**A.** Its P-gp substrate is “substrate of P-glycoprotein”.

**Q.** For `CCCCCC=CCC=CCCCCCCCC(=O)OC(C(=O)OC1CC2(O)C(OC(=O)c3ccccc3)C3C4(OC(C)=O)COC4CC(O)C3(C)C(=O)C(OC(C)=O)C(=C1C)C2(C)C)C(NC(=O)c1ccccc1)c1ccccc1` (stereo not drawn) [2’-linoleic acid-PX], which Microtubule assembly (microtubule) is on record?
**A.** The Microtubule assembly was “not able to assemble microtubule”.

**Q.** Which “Effect on tubulin polymerization” value (tubulin; 5 µM, compared to control) does the source give for “2’-behenoyl-paclitaxel [Formulation C22-PX]” here?
**A.** Its value is “no effect on tubulin polymerization”.

**Q.** And the “Effect on tubulin polymerization” value (tubulin; 10 µM, compared to control)?
**A.** The value was “no effect on tubulin polymerization; also recorded: no microtubule activity”.

**Q.** What about the “Effect on tubulin polymerization” value (tubulin; 20 µM, compared to control (p < 0.01)) of the same compound?
**A.** Its value is “some tubulin polymerization activity”.

**Q.** And the “IC50 fold higher than PX” value ([2]; 4T1 cells)?
**A.** The value was “about 8 fold”.

**Q.** What about the IC50 ([2]; 4T1 cells, MTT, 48 h) of the same compound?
**A.** The IC50 was 282 ± 42 nM.

**Q.** For `CC/C=C\C/C=C\C/C=C\C/C=C\C/C=C\C/C=C/CCC(=O)O[C@@H](C(=O)O[C@H]1C[C@@]2(O)[C@@H](OC(=O)c3ccccc3)C3[C@](C)(C(=O)[C@H](OC(C)=O)C(=C1C)C2(C)C)[C@@H](O)C[C@H]1OC[C@@]31OC(C)=O)[C@@H](NC(=O)c1ccccc1)c1ccccc1` (stereo partly drawn) [DHA-PX, docosahexaenoic acid-PX], which “MTD fold higher compared to Taxol” value (mice) is on record?
**A.** Its value is 4.4 fold.

**Q.** And the Antitumor efficacy [3]?
**A.** The Antitumor efficacy was “completely eliminated measurable tumors”.

**Q.** And the “Tumor AUC of PX fold greater than Taxol” value ([3]; equimolar dose)?
**A.** The value was 1.71 fold.

**Q.** What about the “Tumor AUC of PX fold greater than Taxol” value ([3]; equitoxic dose) of the same compound?
**A.** The value was 5.79 fold.

**Q.** And the Microtubule assembly (microtubule)?
**A.** Its Microtubule assembly is “not able to assemble microtubule”.

**Q.** What about the Microtubule assembly activity (microtubule) of the same compound?
**A.** Its Microtubule assembly activity is “does not have microtubule assembly activity”.

**Q.** What about the Cytotoxic concentration range (human tumor cell lines) of the same compound?
**A.** Its Cytotoxic concentration range is “µM concentration range”.

**Q.** And the Overall survival [4]?
**A.** Its Overall survival is “not superior to dacarbazine”.

**Q.** What about the P-gp substrate (P-glycoprotein (P-gp)) of the same compound?
**A.** Its P-gp substrate is “remains a P-gp substrate”.
